Results reported in patent publication US6020006A, “Reduction of hair growth” (The Gillette Company, priority 1998, dated 2000).

Tests used:
[1] = system: tissue-specific form of alkaline phosphatase; settings: Millan, Clinica Chimica Acta. 209:123-129, 1992; cited from earlier work
Human hair follicles = assay: Human hair follicle growth assay; type: cell-based; settings: for % Inhibition / reduction in growth rate: Day 6-Day 0, vs control
Description: Human hair follicles in growth phase (anagen) were isolated from face-lift tissue under a dissecting scope using a scalpel and watchmakers forceps. The skin was sliced into thin strips exposing 2-3 rows of follicles that could readily be dissected. Follicles were placed into 0.5 mL Williams E medium (Life Technologies, Gaithersburg, Md.) supplemented with […] L-glutamine, 10 μg/mL insulin, 10 ng/mL hydrocortisone, 100 units penicillin, 0.1 mg/mL streptomycin and 0.25 μg/mL amphotericin B. The follicles were incubated in 24 well plates (1 follicle/well) at 37° C. in an atmosphere of 5% CO2 and 95% air. Hair follicles were videorecorded in the 24-well plates under the dissecting scope under a power of 20×. Typically, initial recordings were made on day 0 (day follicles were placed in culture) or day 1, and again on days 7 or 8. Hair follicle lengths were assessed using an image analysis software system (Computer Eyes and NIH Image).

Alkaline phosphatase [2] = biological target: T1, Alkaline phosphatase (Mesocricetus auratus, UniProt A0A1U7QBN2); assay: Alkaline phosphatase activity, hamster flank organ hair follicle enzyme; type: biochemical
T1 construct: the supernatant was used as the enzyme source; from tissue; host or cells: whole hamster flank organs, homogenized, 12,000×g supernatant
T1 sequence (A0A1U7QBN2 18-524): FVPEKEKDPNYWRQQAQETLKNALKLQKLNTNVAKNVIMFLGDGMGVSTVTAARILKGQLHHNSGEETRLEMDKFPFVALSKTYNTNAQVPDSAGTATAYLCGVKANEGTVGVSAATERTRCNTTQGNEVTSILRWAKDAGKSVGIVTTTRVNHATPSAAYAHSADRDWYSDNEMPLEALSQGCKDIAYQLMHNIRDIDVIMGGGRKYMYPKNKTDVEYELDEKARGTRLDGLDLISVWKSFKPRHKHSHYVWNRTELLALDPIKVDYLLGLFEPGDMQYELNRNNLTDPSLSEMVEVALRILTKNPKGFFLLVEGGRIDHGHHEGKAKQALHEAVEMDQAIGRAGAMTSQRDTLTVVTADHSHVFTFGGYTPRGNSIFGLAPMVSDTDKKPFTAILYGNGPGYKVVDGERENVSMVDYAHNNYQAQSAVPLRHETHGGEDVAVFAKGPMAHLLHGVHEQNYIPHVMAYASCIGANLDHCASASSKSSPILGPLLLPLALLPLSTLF
Description: (§1) Alkaline phosphatase activity was determined using a kit supplied by Sigma Chemical Co. Whole flank organs from hamsters or isolated human hair follicles were homogenized in a Tris-sucrose buffer, pH 7.5, using a polytron. The homogenate was centrifuged at 12,000×g for 5 minutes in a microcentrifuge, and the supernatant was used as the enzyme source. The supernatant (0.1 mL) was added to a reaction mixture containing 0.5 mL substrate (p-nitophenol phosphate) and 0.5 mL reaction buffer (both reagents supplied in the kit). Inhibitors were added in a volume of 0.1 mL. Water was used as a negative control. Reaction mixtures were incubated for 30 minutes at 37° C. The reaction mixtures were then transferred to a tube containing 10 mL 0.05N NaOH. Absorbance was measured at a wavelength of 410 nm. Concentrated hydrochloric acid (0.2 mL) was added to each tube and tubes were mixed. Again, absorbance was measured at 410 nm. Absorbance values from the second measurement were substrated from the first measurement to give normalized alkaline phosphatase activity.

Alkaline phosphatase [3] = biological target: T2, Alkaline phosphatase (Homo sapiens, UniProt P05186); assay: Alkaline phosphatase activity, human hair follicle enzyme; type: biochemical
T2 construct: the supernatant was used as the enzyme source; from tissue; host or cells: isolated human hair follicles, homogenized, 12,000×g supernatant
T2 sequence (P05186 18-502 limits assumed): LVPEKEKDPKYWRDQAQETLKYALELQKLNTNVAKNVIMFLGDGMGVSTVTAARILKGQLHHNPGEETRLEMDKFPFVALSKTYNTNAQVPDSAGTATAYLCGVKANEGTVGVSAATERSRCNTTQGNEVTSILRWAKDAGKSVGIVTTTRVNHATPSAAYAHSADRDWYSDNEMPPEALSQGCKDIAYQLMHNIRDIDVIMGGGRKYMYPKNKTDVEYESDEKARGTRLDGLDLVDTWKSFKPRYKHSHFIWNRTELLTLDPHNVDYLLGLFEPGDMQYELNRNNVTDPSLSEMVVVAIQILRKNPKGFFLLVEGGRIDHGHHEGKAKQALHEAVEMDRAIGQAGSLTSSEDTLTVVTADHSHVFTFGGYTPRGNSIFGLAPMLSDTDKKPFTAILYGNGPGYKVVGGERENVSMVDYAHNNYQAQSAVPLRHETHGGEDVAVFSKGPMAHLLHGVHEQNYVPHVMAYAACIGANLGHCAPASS
Description: as §1

[4] = system: tissue nonspecific form of alkaline phosphatase; settings: in several species; cited from earlier work

N[C@@H](Cc1ccccc1)C(=O)O [phenylalanine]
inhibition of tissue-specific alkaline phosphatase [1]: inhibit the tissue-specific form of alkaline phosphatase in a stereoselective fashion in that only the L-form is active

c1ccc(C2CN3CCSC3=N2)cc1 (racemic) [Tetramisole, [±]-2,3,5,6-tetrahydro-6-phenyl-imidazo [2,1-b] thiazole]
Hair Follicle Length Increase (mm) (Day 6-Day 0) (Human hair follicles; 0.5 mM, control 1.08 ± .25 mm): 0.63 ± .06 mm | inhibition at 500 µM (Human hair follicles; Homo sapiens, read-out: % Inhibition of hair growth): 42 ± 5% | IC50 (Alkaline phosphatase [2]; hamster hair follicle enzyme): 125 µM

N[C@@H](Cc1c[nH]c2ccccc12)C(=O)O [tryptophan]
inhibition of tissue-specific alkaline phosphatase [1]: inhibit the tissue-specific form of alkaline phosphatase in a stereoselective fashion in that only the L-form is active

[Na+].[Na+].[Na+].[O]=[V]([O-])([O-])[O-] [Sodium Orthovanadate, sodium orthovanadate]
% Inhibition / reduction in growth rate (Human hair follicles; 0.1 mM): 58 ± 8% | % Inhibition / reduction in growth rate (Human hair follicles; 0.1 mM, listed as sodium orthovanadate): 58±8% | Hair Follicle Length Increase (mm) (Day 6-Day 0) (Human hair follicles; 0.1 mM, control 0.77 ± .09 mm): 0.32 ± .06 mm | IC50 (Alkaline phosphatase [2]; Flank Organ, Table 3, 30 minutes at 37° C.): 40 µM | IC50 (Alkaline phosphatase [2]; hamster hair follicle enzyme): 40 µM | IC50 (Alkaline phosphatase [3]; Human Hair Follicle, Table 3, 30 minutes at 37° C.): 75 µM | IC50 (Alkaline phosphatase [3]; human hair follicle enzyme): 75 µM

CC(C)C[C@H](N)C(=O)O [leucine]
inhibition of tissue-specific alkaline phosphatase [1]: inhibit the tissue-specific form of alkaline phosphatase in a stereoselective fashion in that only the L-form is active

N=C(N)NCCCC[C@H](N)C(=O)O [L-homeoarginine]
inhibition of tissue nonspecific alkaline phosphatase [4]: inhibitor of the tissue nonspecific form of alkaline phosphatase in several species
